# Source: patent US10001584B2, “Optical film, and polarizing plate and liquid crystal display device that use this optical film” (FUJIFILM Corporation, priority 2013, dated 2018)
# Like-named read-outs stand apart in the source and are kept apart here.
# What was measured:
# [1] = pKa by alkali titration with automatic potentiometric titrator; type: physicochemical; details: mixed solvent THF/H2O=6/4 (volume ratio), 25° C.; for pKa: Table 1
# Experimental: pKa of the obtained exemplificative compound was measured in a mixed solvent having a volume ratio of tetrahydrofuran (THF)/water (H2O)=6/4 at 25° C. by an alkali titration method using automatic potentiometric titrator [AT-610: manufactured by Kyoto Electronics Manufacturing Co., Ltd.].
# The pKa of the compound of the present invention and the comparative compound in a mixed solvent having a volume ratio of tetrahydrofuran (THF)/water (H2O)=6/4 at 25° C. was measured by an alkali titration method using automatic potentiometric titrator (AT-610: manufactured by Kyoto Electronics Manufacturing Co., Ltd.).
# [2] = Volatility: mass change rate of the compound by TG/DTA, held at 140° C. for 1 hour; type: physicochemical; details: for Volatility: held at 140° C. for 1 hour; for volatility suppression effect: in words, discussion of Table 1
# Experimental: The compound denoted by Formula (I) in the present invention was heated from room temperature to 140° C. by using a TG/DTA measurement device (TG/DTA7200 manufactured by Hitachi High-Tech Science Corporation), a change rate of the mass of the compound at the time of being held at 140° C. for 1 hour (a change rate with respect to the mass before being heated) was measured, and the volatility was evaluated on the basis of the following criteria.
# [3] = tetrahydrofuran/water 6/4 (v/v) mixed solvent, read-out: pKa
Structure (SMILES),"pKa [1, 3]","Volatility ([2]; compound alone, Table 1)",volatility suppression effect [2],pKa Value [1],pKa [1],"Volatility ([2]; additive, Table 3)","Volatility ([2]; additive, Table 4)"
O=C(O)CN(CC(=O)O)Cc1ccccc1 [(0-2)],3.2,B (The change rate of the mass of greater than or equal to 0.2% and less than 0.5%),insufficient,,,,
CCC(Oc1ccc(C(C)(C)CC)cc1C(C)(C)CC)C(=O)Nc1cccc(C(=O)O)c1 (stereo not shown) [(0-3)],6.6,A (The change rate of the mass of less than or equal to 0.2%),,,,,
O=C1NC(=O)N(Cc2ccccc2)C(=O)C1c1ccccc1 (stereo not shown) [Comparative Compound (0-1)],3.7,B (The change rate of the mass of greater than or equal to 0.2% and less than 0.5%),insufficient,,,,
O=C(O)CN(CC(=O)OCc1ccccc1)CC(=O)OCc1ccccc1 [Exemplificative Compound (1-1)],,A (The change rate of the mass of less than or equal to 0.2%),,6.0,6.0,A (The change rate of the mass of less than or equal to 0.2%),A (The change rate of the mass of less than or equal to 0.2%)
